According to the supplement of paper PMC10307832:

How the values were obtained:
Assay in all cases: relative viability (nuclei count vs DMSO), 5 days (fraction); higher = more cells survive
[1] = compound: CC1(C)CCC(CN2CCN(c3ccc(C(=O)NS(=O)(=O)c4ccc(NCC5CCOCC5)c([N+](=O)[O-])c4)c(Oc4cnc5[nH]ccc5c4)c3)CC2)=C(c2ccc(Cl)cc2)C1 [Venetoclax] + Cc1cc(Nc2cc(N3CCN(C)CC3)nc(Sc3ccc(NC(=O)C4CC4)cc3)n2)n[nH]1 [Tozasertib] (partner 0.1 µM)
In short: (§1)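 Lung cancer cell lines, seeded in 1536-well plates, were treated the following day by pin tool with a single drug or with five library-drug doses (not always all listed) in √10 steps on top of a fixed anchor-drug dose. Cells were fixed and nuclei stained in one step after 5 days, and nuclei were counted. Relative viability is the nuclei count for treated wells divided by that for vehicle wells, reported as medians of duplicate plates.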

[2] = compound: Cn1cnc2c(F)c(Nc3ccc(Br)cc3Cl)c(C(=O)NOCCO)cc21 [Selumetinib] + CC(=O)c1c(C)c2cnc(Nc3ccc(N4CCNCC4)cn3)nc2n(C2CCCC2)c1=O [Palbociclib] (partner 0.5 µM)
In short: as §1

[3] = compound: Cn1cnc2c(F)c(Nc3ccc(Br)cc3Cl)c(C(=O)NOCCO)cc21 [Selumetinib] + CS(=O)(=O)CCNCc1ccc(-c2ccc3ncnc(Nc4ccc(OCc5cccc(F)c5)c(Cl)c4)c3c2)o1 [Lapatinib] (partner 2 µM)
In short: as §1

[4] = compound: Cn1cnc2c(F)c(Nc3ccc(Br)cc3Cl)c(C(=O)NOCCO)cc21 [Selumetinib] + O=C(c1cc(Cc2n[nH]c(=O)c3ccccc23)ccc1F)N1CCN(C(=O)C2CC2)CC1 [Olaparib] (partner 8 µM)
In short: as §1

With UMC-11 the relative viability ([1]; first compound 0.01 µM) was 0.205, the relative viability ([1]; first compound 0.03162 µM) was 0.213 and the relative viability ([1]; first compound 0.1 µM) was 0.2. For the same cell line, the relative viability ([1]; first compound 0.3162 µM) was 0.191, the relative viability ([1]; first compound 1 µM) was 0.187 and the relative viability ([2]; first compound 0.02 µM) was 0.309. For the same cell line, the relative viability ([2]; first compound 0.06325 µM) was 0.37, the relative viability ([2]; first compound 0.2 µM) was 0.306 and the relative viability ([2]; first compound 0.6325 µM) was 0.34. For the same cell line, the relative viability ([3]; first compound 0.02 µM) was 0.954, the relative viability ([3]; first compound 0.06325 µM) was 0.897 and the relative viability ([3]; first compound 0.2 µM) was 0.972. The relative viability ([3]; first compound 0.6325 µM) was 1.02, the relative viability ([4]; first compound 0.02 µM) was 0.32 and the relative viability ([4]; first compound 0.06325 µM) was 0.33. It also gave a relative viability ([4]; first compound 0.2 µM) of 0.384 and a relative viability ([4]; first compound 0.6325 µM) of 0.914.
